Assay results from ChEMBL document CHEMBL4359834 (J Med Chem, 2019).

Columns and labels:
cells = settings: Homo sapiens, A2058, 1 h
Description: Inhibition of Class 1 PI3K/mTOR in human A2058 cells assessed as reduction in S6 phosphorylation at Ser235/236 residue incubated for 1 hr by InCell Western assay

[1] = biological target: Serine/threonine-protein kinase mTOR (Homo sapiens, UniProt P42345); test: Displacement of Alexafluor labelled kinase tracer314 from recombinant human C-terminal GST-tagged mTOR (1360 to 2549 amino acids) expressed in insect cells incubated for 1 hr by FRET-based LanthaScreen Eu kinase binding assay
[2] = biological target: Phosphatidylinositol 4,5-bisphosphate 3-kinase catalytic subunit alpha isoform (Homo sapiens, UniProt P42336); test: Displacement of Alexafluor labelled kinase tracer314 from recombinant N-terminal His6-tagged PI3K p110alpha (unknown origin) incubated for 1 hr by FRET-based LanthaScreen Eu kinase binding assay
[3] = Inhibition of Class 1 PI3K/mTOR in human A2058 cells assessed as reduction in Akt phosphorylation at Ser473 residue incubated for 1 hr by InCell Western assay; format: cell-based; settings: A2058, 1 h

Sequence of Phosphatidylinositol 4,5-bisphosphate 3-kinase catalytic subunit alpha isoform (P42336 whole entry, canonical isoform): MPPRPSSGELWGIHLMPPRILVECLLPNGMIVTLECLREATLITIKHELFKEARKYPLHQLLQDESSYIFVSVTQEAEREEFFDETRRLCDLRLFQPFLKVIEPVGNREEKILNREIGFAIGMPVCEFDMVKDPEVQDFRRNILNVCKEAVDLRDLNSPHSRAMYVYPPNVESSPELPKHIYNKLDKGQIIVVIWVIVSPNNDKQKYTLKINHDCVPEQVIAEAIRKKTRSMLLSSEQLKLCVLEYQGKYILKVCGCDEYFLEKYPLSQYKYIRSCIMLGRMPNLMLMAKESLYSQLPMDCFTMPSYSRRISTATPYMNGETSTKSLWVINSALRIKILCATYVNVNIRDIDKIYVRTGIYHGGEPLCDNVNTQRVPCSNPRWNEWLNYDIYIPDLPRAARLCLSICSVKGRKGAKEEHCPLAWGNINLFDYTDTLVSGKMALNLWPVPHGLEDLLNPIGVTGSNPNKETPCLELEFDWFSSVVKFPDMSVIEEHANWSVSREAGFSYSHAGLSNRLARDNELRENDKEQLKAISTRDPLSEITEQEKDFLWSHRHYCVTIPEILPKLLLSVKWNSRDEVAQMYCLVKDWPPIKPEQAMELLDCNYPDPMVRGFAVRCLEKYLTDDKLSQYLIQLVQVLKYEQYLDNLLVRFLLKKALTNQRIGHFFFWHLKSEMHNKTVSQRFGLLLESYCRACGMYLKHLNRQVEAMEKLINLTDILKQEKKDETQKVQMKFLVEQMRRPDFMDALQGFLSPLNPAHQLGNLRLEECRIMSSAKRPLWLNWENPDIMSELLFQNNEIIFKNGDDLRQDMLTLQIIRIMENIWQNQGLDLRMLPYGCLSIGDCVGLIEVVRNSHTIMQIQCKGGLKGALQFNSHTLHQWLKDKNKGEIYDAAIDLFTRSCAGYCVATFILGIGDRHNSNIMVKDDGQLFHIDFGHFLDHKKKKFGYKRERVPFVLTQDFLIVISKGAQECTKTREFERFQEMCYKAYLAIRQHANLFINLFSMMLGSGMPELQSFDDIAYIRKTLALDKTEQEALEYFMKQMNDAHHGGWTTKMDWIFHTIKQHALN

C[C@@H]1COCCN1c1nc(-c2cnc(N)cc2C(F)(F)F)nc(N2CCOCC2)n1
IC50 (cells): 0.41 µM | Ki [1]: 0.109 µM | Ki [2]: 0.0537 µM | IC50 [3]: 0.373 µM

C[C@@H]1COC[C@@H](C)N1c1nc(-c2cnc(N)cc2C(F)(F)F)nc(N2[C@H](C)COC[C@H]2C)n1
IC50 (cells): 14.5 µM | Ki [1]: 1.89 µM | Ki [2]: > 20 µM | IC50 [3]: > 20 µM

C[C@H]1COCCN1c1cc(-c2cnc(N)nc2C(F)F)nc(N2CCOCC2)n1
IC50 (cells): 0.387 µM | Ki [1]: 0.192 µM | Ki [2]: 0.002 µM | IC50 [3]: 0.0996 µM

C[C@H]1COC[C@H](C)N1c1nc(-c2cnc(N)cc2C(F)(F)F)nc(N2[C@@H](C)COC[C@@H]2C)n1
IC50 (cells): 0.531 µM | Ki [1]: 0.265 µM | Ki [2]: 0.037 µM | IC50 [3]: 0.61 µM

C[C@@H]1COC[C@H](C)N1c1nc(-c2cnc(N)cc2C(F)(F)F)nc(N2[C@H](C)COC[C@@H]2C)n1
IC50 (cells): 0.437 µM | Ki [1]: 0.0396 µM | Ki [2]: 0.0314 µM | IC50 [3]: 0.567 µM

C[C@@H]1COC[C@@H](C)N1c1nc(-c2cnc(N)cc2C(F)(F)F)nc(N2CCOCC2)n1
IC50 (cells): 0.457 µM | Ki [1]: 0.0645 µM | Ki [2]: 0.0889 µM | IC50 [3]: 0.435 µM
